The results in this text go back to ChEMBL document CHEMBL1134127, “A mechanism-based affinity-labeling agent for possible use in isolating N-acetylglucosaminidase” (Bioorg Med Chem Lett, 2001).

The experiment is described as follows: Inhibitory activity against O-linked N-acetyl-glucosaminidase (O-GlcNAc'ase). More on the design: species or system Rattus norvegicus.

In the case of `CC(=O)NC1[C@@H](O)[C@@H](O)C(CO)O[C@H]1SC1CC(=O)N(c2ccc(C(=O)c3ccccc3)cc2)C1=O` (stereo partly specified), the Ki (commonly a measure of affinity in units of concentration, obtained from inhibition or displacement) stood at 50 µM.
